Where a SMILES comes first, the peptide text is derived from it. The star is where a group is joined. X1 = O=C(O)[C@H]1CSC(c2nc3ccc(N*)cc3s2)=N1; Decanoyl(3,6,9-trioxa) = COCCOCCOCC(=O)*
Assays:
Assay type in all cases: biochemical
FXlla = biological target: T1, FXlla (Homo sapiens, UniProt P00748); experiment: Cross reactivity assay, FXIIa; conditions: 145 nM FXlla
T1 construct: initiated by addition of active coagulation factors such as FXlla, FXla, or FIXa
T1 sequence (P00748 373-615 limits assumed): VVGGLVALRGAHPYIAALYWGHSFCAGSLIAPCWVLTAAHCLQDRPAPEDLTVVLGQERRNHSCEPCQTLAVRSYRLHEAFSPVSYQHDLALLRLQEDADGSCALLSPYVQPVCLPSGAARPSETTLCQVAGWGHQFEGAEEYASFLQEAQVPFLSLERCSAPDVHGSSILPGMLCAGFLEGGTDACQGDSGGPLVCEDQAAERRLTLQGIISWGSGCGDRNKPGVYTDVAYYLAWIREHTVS
Experimental: (§1) To determine cross-reactivity an assay was performed using a range of coagulation enzymes at representative concentrations in human plasma. […] For tissue-type plasminogen activator (tPA) this is the conventional concentration for facilitation of fibrinolysis. A concentration of 80 nm FXa yielded a signal of 1.000.000 RLU.

[1] = biological target: tissue-type plasminogen activator (tPA) (Homo sapiens, UniProt P00750); experiment: Cross reactivity assay, tPA; conditions: 193 IU/mL tPA
Experimental: as §1

thrombin = biological target: T2, thrombin (Homo sapiens, UniProt P00734); experiment: Cross reactivity assay, thrombin; conditions: 52 nM thrombin
T2 construct: FXa acts by cleaving prothrombin, yielding active thrombin
Experimental: as §1

plasmin = plasmin (Homo sapiens, UniProt P00747); experiment: Cross reactivity assay, plasmin; conditions: 8 nM plasmin
Experimental: as §1

FXa [2] = biological target: T3, FXa (Homo sapiens, UniProt P00742); experiment: Michaelis-Menten kinetics of substrate with FXa (luciferase luminescence); conditions: FXa concentration 1.6 nM
T3 construct: purchased Coachrom
Experimental: Michaelis-Menten kinetics were determined for the enzyme FXa and its substrate MePEG2-IEGR (the TFA salt was used in these examples). The following composition was prepared in a microvial on ice:
160 μL Tris buffered saline (TBS) 50 mM Tris-HCI, 150 mM NaCI (pH 7.4)
4 μL ATP (final concentration 333 μM)
4 μL MgC2 (final concentration 8.3 mM)
12 μL Luciferase (final concentration 0.9 mg/ml)
Substrate compositions 2a-g:
Microvials were prepared with 30 μL substrate concentrations leading to final concentrations of 2000, 1333, 1000, 666, 333, 167 and 66 μM.
FXa (Coachrom, 16 nM) composition was prepared in a microvial on ice
Subsequently, the following compositions were added together in a white 384-well plate:
Subsequently the well plate was placed in a 37 ° C. thermostated Flexstation 3 (Molecular Devices). Luminescence emission wavelength was with an integration time of 1500 ms, measured for 1s every 30 s during 30 min.

FXa [3] = biological target: T3, FXa; experiment: Cross reactivity assay, FXa; conditions: compared with thrombin, plasmin, tPA, FXlla
Experimental: as §1

T3 sequence (P00742 235-488 limits assumed): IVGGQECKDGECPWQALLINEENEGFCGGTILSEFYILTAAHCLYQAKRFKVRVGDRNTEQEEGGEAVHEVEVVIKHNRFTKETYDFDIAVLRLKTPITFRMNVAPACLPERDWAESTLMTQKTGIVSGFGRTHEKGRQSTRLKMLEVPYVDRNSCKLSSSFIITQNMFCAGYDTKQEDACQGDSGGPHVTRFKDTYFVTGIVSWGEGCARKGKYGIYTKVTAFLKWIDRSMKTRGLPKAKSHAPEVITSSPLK
T3 sequence (P00742 41-179 partner limits assumed): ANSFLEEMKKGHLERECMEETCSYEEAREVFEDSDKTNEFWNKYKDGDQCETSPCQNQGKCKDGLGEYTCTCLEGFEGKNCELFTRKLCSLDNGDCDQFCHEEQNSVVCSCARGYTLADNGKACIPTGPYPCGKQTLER
Sequence of plasmin (P00747 581-810 limits assumed): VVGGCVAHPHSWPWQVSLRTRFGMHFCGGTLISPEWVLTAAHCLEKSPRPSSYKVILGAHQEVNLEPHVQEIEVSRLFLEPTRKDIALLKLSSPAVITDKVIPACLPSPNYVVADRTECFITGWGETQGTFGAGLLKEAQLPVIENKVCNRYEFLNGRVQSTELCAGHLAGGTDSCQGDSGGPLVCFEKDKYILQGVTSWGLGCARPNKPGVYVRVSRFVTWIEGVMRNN
Sequence of plasmin (P00747 97-580 partner limits assumed): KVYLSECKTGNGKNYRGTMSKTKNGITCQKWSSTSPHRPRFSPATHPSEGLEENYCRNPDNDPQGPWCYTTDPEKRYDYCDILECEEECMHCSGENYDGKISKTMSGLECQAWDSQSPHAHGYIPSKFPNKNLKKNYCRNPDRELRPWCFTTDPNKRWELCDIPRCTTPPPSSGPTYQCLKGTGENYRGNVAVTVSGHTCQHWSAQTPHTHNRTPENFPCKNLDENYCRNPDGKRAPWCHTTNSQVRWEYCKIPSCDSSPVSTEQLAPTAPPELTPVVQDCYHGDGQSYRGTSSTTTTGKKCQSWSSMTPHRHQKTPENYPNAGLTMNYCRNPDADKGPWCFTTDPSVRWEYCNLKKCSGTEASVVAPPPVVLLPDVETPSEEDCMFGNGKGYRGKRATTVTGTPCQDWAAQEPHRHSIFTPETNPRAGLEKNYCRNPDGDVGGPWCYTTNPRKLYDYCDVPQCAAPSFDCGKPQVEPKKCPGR
Sequence of tissue-type plasminogen activator (tPA) (P00750 36-562): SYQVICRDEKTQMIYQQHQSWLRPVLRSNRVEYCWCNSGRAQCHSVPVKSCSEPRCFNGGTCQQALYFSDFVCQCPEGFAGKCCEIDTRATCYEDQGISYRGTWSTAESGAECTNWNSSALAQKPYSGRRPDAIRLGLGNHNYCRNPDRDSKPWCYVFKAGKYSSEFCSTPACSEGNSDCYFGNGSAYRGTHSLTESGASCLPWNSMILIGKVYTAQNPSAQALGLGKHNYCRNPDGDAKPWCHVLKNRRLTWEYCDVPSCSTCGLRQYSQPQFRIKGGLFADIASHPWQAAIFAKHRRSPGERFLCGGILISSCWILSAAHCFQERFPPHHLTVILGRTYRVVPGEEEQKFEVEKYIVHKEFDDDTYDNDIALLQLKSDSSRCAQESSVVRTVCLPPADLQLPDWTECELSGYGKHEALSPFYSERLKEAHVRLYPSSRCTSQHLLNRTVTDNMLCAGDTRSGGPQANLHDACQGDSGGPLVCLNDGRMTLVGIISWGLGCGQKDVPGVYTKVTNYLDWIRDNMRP

CC[C@H](C)[C@H](NC(=O)COCCOCCOC)C(=O)N[C@@H](CCC(=O)O)C(=O)NCC(=O)N[C@@H](CCCNC(=N)N)C(=O)Nc1ccc2nc(C3=N[C@@H](C(=O)O)CS3)sc2c1 [MePEG2-IEGR] ({Decanoyl(3,6,9-trioxa)}-IEGR-X1) gave a luminescent signal (FXlla) of roughly 500 RLU, a luminescent signal [1] of roughly 6.000 RLU and a luminescent signal (thrombin) of roughly 30.000 RLU. For the same molecule, the luminescent signal (plasmin) was roughly 8.000 RLU, the “Kcat=Vmax/[FXa]” value (FXa [2]) was 1.05e+14 s⁻¹ and the Km (FXa [2]; 37 °C) was 619 µM. For the same molecule, the Vmax (FXa [2]; 37 °C, luciferase/ATP/Mg readout) was 468000 RLU and the “cross-reactivity with serine proteases other than FXa” value (FXa [3]) was “minimal cross-reactivity”.

From US20210371461A1, “Novel chemiluminescent substrates for Factor Xa” (Enzyre B.V., priority 2018, published 2021)
